How the values were obtained:
HCV replicon genotype 1a = assay: microbe, parasite or virus in culture; type: cell-based; details: genotype 1a replicon cells, incubated 96 hours, NS3/4A ELISA readout
HCV replicon genotype 1b = assay: microbe, parasite or virus in culture; type: cell-based; details: genotype 1b replicon cells, incubated 96 hours, NS3/4A ELISA readout

Row | SMILES | IC50 (HCV replicon genotype 1a; Hepatitis C virus, 96 h) | IC50 (HCV replicon genotype 1b) | IC50 (HCV replicon genotype 1a) | IC50 (HCV replicon genotype 1b; Hepatitis C virus, 96 h)
1 | CNC(=O)c1c(-c2ccc(F)cc2)oc2cc(N(C)S(C)(=O)=O)c(-c3ccc4c(n3)-c3cc5c(F)cccc5n3C(C(=O)NC)O4)cc12 (stereo not drawn) [Compound 109] | 2 nM | 2.1 nM | – | –
2 | CNC(=O)c1c(-c2ccc(F)cc2)oc2cc(N(C)S(C)(=O)=O)c(-c3ccc4c(n3)-c3cc5c(F)cccc5n3C(C(=O)NC)O4)cc12 (stereo not drawn) [Compound 110] | – | 4.8 nM | 3 nM | –
3 | CNC(=O)c1c(-c2ccc(F)cc2)oc2cc(N(C)S(C)(=O)=O)c(-c3ccc4c(n3)-c3cc5c(F)cccc5n3C(C(=O)NC(C)C)O4)cc12 (stereo not drawn) [Compound 111] | 4.5 nM | – | – | 4.3 nM
4 | CNC(=O)c1c(-c2ccc(F)cc2)oc2cc(N(C)S(C)(=O)=O)c(-c3ccc4c(n3)-c3cc5c(F)cccc5n3C(C(=O)O)O4)cc12 (stereo not drawn) [Compound 112] | 20 nM | – | – | 23 nM
5 | CCOC(=O)C1Oc2ccc(-c3cc4c(C(=O)NC)c(-c5ccc(F)cc5)oc4cc3N(C)S(C)(=O)=O)nc2-c2cc3c(F)cccc3n21 (stereo not drawn) [Compound 113] | 32 nM | – | – | 29 nM
6 | CNC(=O)c1c(-c2ccc(F)cc2)oc2cc(N(C)S(C)(=O)=O)c(-c3ccc4c(n3)-c3cc5c(F)cccc5n3C(CN)O4)cc12 (stereo not drawn) [Compound 114, 5-(6-(aminomethyl)-11-fluoro-6H-pyrido[2′,3′:5,6][1,3]oxazino[3,4-a]indol-2-yl)-2-(4-fluorophenyl)-N-methyl-6-(N-methylmethylsulfonamido)benzofuran-3-carboxamide] | 7.3 nM | – | – | 18 nM
7 | CNC(=O)c1c(-c2ccc(F)cc2)oc2cc(N(C)S(C)(=O)=O)c(-c3ccc4c(n3)-c3cc5c(F)cccc5n3C(CN)O4)cc12 (stereo not drawn) [Compound 115, 5-(6-(aminomethyl)-11-fluoro-6H-pyrido[2′,3′:5,6][1,3]oxazino[3,4-a]indol-2-yl)-2-(4-fluorophenyl)-N-methyl-6-(N-methylmethylsulfonamido)benzofuran-3-carboxamide] | – | 19 nM | 8.9 nM | –
8 | CNC(=O)c1c(-c2ccc(F)cc2)oc2cc(N(C)S(C)(=O)=O)c(-c3ccc4c(n3)-c3cc5c(F)cccc5n3C(CNCC(=O)O)O4)cc12 (stereo not drawn) [Compound 116, 2-(((11-fluoro-2-(2-(4-fluorophenyl)-3-(methylcarbamoyl)-6-(N-methylmethylsulfonamido)benzofuran-5-yl)-6H-pyrido[2′,3′:5,6][1,3]oxazino[3,4-a]indol-6-yl)methyl)amino)acetic acid] | 53 nM | – | – | 9.4 nM
9 | CNC(=O)c1c(-c2ccc(F)cc2)oc2cc(N(C)S(C)(=O)=O)c(-c3ccc4c(n3)-c3cc5c(F)cccc5n3C(CNC(C)C(=O)O)O4)cc12 (stereo not drawn) [Compound 117] | 74 nM | – | – | 7.5 nM
10 | CCOC(=O)C(C)NCC1Oc2ccc(-c3cc4c(C(=O)NC)c(-c5ccc(F)cc5)oc4cc3N(C)S(C)(=O)=O)nc2-c2cc3c(F)cccc3n21 (stereo not drawn) [Compound 118] | 19 nM | – | – | 4 nM
11 | CCOC(=O)CNCC1Oc2ccc(-c3cc4c(C(=O)NC)c(-c5ccc(F)cc5)oc4cc3N(C)S(C)(=O)=O)nc2-c2cc3c(F)cccc3n21 (stereo not drawn) [Compound 119] | 17 nM | – | – | 5.1 nM
12 | CNC(=O)c1c(-c2ccc(F)cc2)oc2cc(N(C)S(C)(=O)=O)c(-c3ccc4c(n3)-c3cc5c(F)cccc5n3C(CNCCOC)O4)cc12 (stereo not drawn) [Compound 120] | 4.3 nM | – | – | 2.1 nM
13 | CNC(=O)c1c(-c2ccc(F)cc2)oc2cc(N(C)S(C)(=O)=O)c(-c3ccc4c(n3)-c3cc5c(F)cccc5n3C(CN(C)C)O4)cc12 (stereo not drawn) [Compound 121, 5-(6-((dimethylamino)methyl)-11-fluoro-6H-pyrido[2′,3′:5,6][1,3]oxazino[3,4-a]indol-2-yl)-2-(4-fluorophenyl)-N-methyl-6-(N-methylmethylsulfonamido)benzofuran-3-carboxamide] | 3 nM | – | – | 7.5 nM
14 | CNC(=O)c1c(-c2ccc(F)cc2)oc2cc(N(C)S(C)(=O)=O)c(-c3ccc4c(n3)-c3cc5c(F)cccc5n3C(CN(C)C)O4)cc12 (stereo not drawn) [Compound 122, 5-(6-((dimethylamino)methyl)-11-fluoro-6H-pyrido[2′,3′:5,6][1,3]oxazino[3,4-a]indol-2-yl)-2-(4-fluorophenyl)-N-methyl-6-(N-methylmethylsulfonamido)benzofuran-3-carboxamide] | – | 5.2 nM | 5.1 nM | –
15 | CNC(=O)c1c(-c2ccc(F)cc2)oc2cc(N(C)S(C)(=O)=O)c(-c3ccc4c(n3)-c3cc5c(F)cccc5n3C(CN3CCOCC3)O4)cc12 (stereo not drawn) [Compound 123, 5-(11-fluoro-6-(morpholinomethyl)-6H-pyrido[2′,3′:5,6][1,3]oxazino[3,4-a]indol-2-yl)-2-(4-fluorophenyl)-N-methyl-6-(N-methylmethylsulfonamido)benzofuran-3-carboxamide] | 3.4 nM | – | – | 3.6 nM
16 | CNC(=O)c1c(-c2ccc(F)cc2)oc2cc(N(C)S(C)(=O)=O)c(-c3ccc4c(n3)-c3cc5c(F)cccc5n3C(CNC(=O)[C@@H]3CCCN3C(=O)OC)O4)cc12 (stereo partly drawn) [Compound 124, (2S)-methyl 2-(((11-fluoro-2-(2-(4-fluorophenyl)-3-(methylcarbamoyl)-6-(N-methylmethylsulfonamido)benzofuran-5-yl)-6H-pyrido[2′,3′:5,6][1,3]oxazino[3,4-a]indol-6-yl)methyl)carbamoyl)pyrrolidine-1-carboxylate] | – | 4.5 nM | 19 nM | –
17 | CNC(=O)c1c(-c2ccc(F)cc2)oc2cc(N(C)S(C)(=O)=O)c(-c3ccc4c(n3)-c3cc5c(F)cccc5n3C(CNC(=O)[C@@H](NC(=O)OC)C(C)C)O4)cc12 (stereo partly drawn) [Compound 125] | 5.1 nM | 3.4 nM | – | –

Row | SMILES | IC50 (HCV replicon genotype 1a; Hepatitis C virus, 96 h) | IC50 (HCV replicon genotype 1b) | IC50 (HCV replicon genotype 1a) | IC50 (HCV replicon genotype 1b; Hepatitis C virus, 96 h)
18 | CNC(=O)c1c(-c2ccc(F)cc2)oc2cc(N(C)S(C)(=O)=O)c(-c3ccc4c(n3)-c3cc5c(F)cccc5n3C(CNC(=O)[C@@H]3CCCN3C(=O)OC)O4)cc12 (stereo partly drawn) [Compound 126] | – | 1.4 nM | 2.7 nM | –
19 | CNC(=O)c1c(-c2ccc(F)cc2)oc2cc(N(C)S(C)(=O)=O)c(-c3ccc4c(n3)-c3cc5c(F)cccc5n3C(CNC(=O)[C@@H](NC(=O)OC)C(C)C)O4)cc12 (stereo partly drawn) [Compound 127] | – | 1.6 nM | 3.5 nM | –
20 | CNC(=O)c1c(-c2ccc(F)cc2)oc2cc(N(C)S(C)(=O)=O)c(-c3ccc4c(n3)-c3cc5c(F)cccc5n3C(CNS(C)(=O)=O)O4)cc12 (stereo not drawn) [Compound 128, 5-(11-fluoro-6-(methylsulfonamidomethyl)-6H-pyrido[2′,3′:5,6][1,3]oxazino[3,4-a]indol-2-yl)-2-(4-fluorophenyl)-N-methyl-6-(N-methylmethylsulfonamido)benzofuran-3-carboxamide] | 2.6 nM | – | – | 0.9 nM
21 | CNC(=O)c1c(-c2ccc(F)cc2)oc2cc(N(C)S(C)(=O)=O)c(-c3ccc4c(n3)-c3cc5c(F)cccc5n3C(CNC(C)=O)O4)cc12 (stereo not drawn) [Compound 129] | – | 2.1 nM | 1.7 nM | –
22 | CNC(=O)c1c(-c2ccc(F)cc2)oc2cc(N(C)S(C)(=O)=O)c(-c3ccc4c(n3)-c3cc5c(F)cccc5n3C(CNC(C)=O)O4)cc12 (stereo not drawn) [Compound 130] | – | 3 nM | 3 nM | –
23 | CNC(=O)c1c(-c2ccc(F)cc2)oc2cc(N(C)S(C)(=O)=O)c(-c3ccc4c(c3)-c3c(Cl)c5ccccc5n3C(C3CC3)O4)cc12 (stereo not drawn) [Compound 131, 5-(12-chloro-6-cyclopropyl-6H-benzo[5,6][1,3]oxazino[3,4-a]indol-2-yl)-2-(4-fluorophenyl)-N-methyl-6-(N-methylmethylsulfonamido)benzofuran-3-carboxamide] | 79 nM | – | – | 50 nM
24 | CNC(=O)c1c(-c2ccc(F)cc2)oc2cc(N(C)S(C)(=O)=O)c(-c3ccc4c(c3)-c3cc5ccccc5n3C(C3CC3)O4)cc12 (stereo not drawn) [Compound 132] | 4.8 nM | – | – | 7.9 nM
25 | CNC(=O)c1c(-c2ccc(F)cc2)oc2cc(N(C)S(C)(=O)=O)c(-c3ccc4c(c3)-c3nc5ccccc5n3CO4)cc12 [Compound 133, 5-(6H-benzo[e]benzo[4,5]imidazo[1,2-c][1,3]oxazin-2-yl)-2-(4-fluorophenyl)-N-methyl-6-(N-methylmethylsulfonamido)benzofuran-3-carboxamide] | 2.6 nM | – | – | 3.2 nM
26 | CNC(=O)c1c(-c2ccc(F)cc2)oc2cc(N(C)S(C)(=O)=O)c(-c3ccc4c(c3)-c3nc5cccc(F)c5n3CO4)cc12 [Compound 134] | 4 nM | – | – | 2.9 nM
27 | CNC(=O)c1c(-c2ccc(F)cc2)oc2cc(N(C)S(C)(=O)=O)c(-c3ccc4c(c3)-c3nc5cccnc5n3CO4)cc12 [Compound 135] | 2.4 nM | – | – | 2.4 nM
28 | CNC(=O)c1c(-c2ccc(F)cc2)oc2cc(N(C)S(C)(=O)=O)c(-c3ccc4c(n3)-c3nc5ccccc5n3CO4)cc12 [Compound 136] | 3.5 nM | – | – | 2.9 nM
29 | CNC(=O)c1c(-c2ccc(F)cc2)oc2cc(N(C)S(C)(=O)=O)c(-c3ccc4c(n3)-c3nc5cccnc5n3CO4)cc12 [Compound 137] | 44 nM | – | – | 7.9 nM
30 | CNC(=O)c1c(-c2ccc(F)cc2)oc2cc(N(C)S(C)(=O)=O)c(-c3cc4c(cn3)OCn3c-4nc4cccnc43)cc12 [Compound 138] | 62 nM | – | – | 19 nM
31 | CNC(=O)c1c(-c2ccc(F)cc2)oc2cc(N(C)S(C)(=O)=O)c(-c3ccc4c(n3)-c3nc5c(F)cccc5n3CO4)cc12 [Compound 139] | 1.9 nM | – | – | 1.9 nM
32 | CNC(=O)c1c(-c2ccc(F)cc2)oc2cc(N(C)S(C)(=O)=O)c(-c3ccc4c(n3)-c3nc5cccc(F)c5n3CO4)cc12 [Compound 140] | 7.9 nM | – | – | 5.9 nM
33 | CNC(=O)c1c(-c2ccc(F)cc2)oc2cc(N(C)S(C)(=O)=O)c(-c3cnc4c(c3)-c3nc5c(n3CO4)CCCC5)cc12 [Compound 141, 2-(4-fluorophenyl)-N-methyl-6-(N-methylmethylsulfonamido)-5-(8,9,10,11-tetrahydro-6H-benzo[4,5]imidazo[1,2-c]pyrido[3,2-e][1,3]oxazin-2-yl)benzofuran-3-carboxamide] | 2.4 nM | – | – | 2.4 nM

Reference: US9265773B2, “Tetracyclic heterocycle compounds and methods of use thereof for the treatment of viral diseases” (priority 2011, dated 2016)
